Measured values published in patent US11034672B1, “Tyrosine kinase inhibitor compositions, methods of making and methods of use” (Black Diamond Therapeutics, Inc., priority 2018, dated 2021).

Tests used:
Assay type in all cases: cell-based
[1] = target: T1, EGFR WT (Homo sapiens, UniProt P00533); assay: Activity for inhibiting EGFR (Table A), EGFR WT; conditions: read-out: EGFR WT, potency code (IC50)
[2] = target: T2, EGFR V3 (Homo sapiens, UniProt P00533, DELINS30-297G); assay: Activity for inhibiting EGFR (Table A), EGFR V3 (EGFR-Viii); conditions: read-out: EGFR V3, potency code (IC50)
T2 construct: expressed in transfected cells; host or cells: BaF3 (murine pro-B), retroviral pMXs-IRES-Blasticidin
T2 sequence (P00533 with tags, fused parts or gaps DELINS30-297G): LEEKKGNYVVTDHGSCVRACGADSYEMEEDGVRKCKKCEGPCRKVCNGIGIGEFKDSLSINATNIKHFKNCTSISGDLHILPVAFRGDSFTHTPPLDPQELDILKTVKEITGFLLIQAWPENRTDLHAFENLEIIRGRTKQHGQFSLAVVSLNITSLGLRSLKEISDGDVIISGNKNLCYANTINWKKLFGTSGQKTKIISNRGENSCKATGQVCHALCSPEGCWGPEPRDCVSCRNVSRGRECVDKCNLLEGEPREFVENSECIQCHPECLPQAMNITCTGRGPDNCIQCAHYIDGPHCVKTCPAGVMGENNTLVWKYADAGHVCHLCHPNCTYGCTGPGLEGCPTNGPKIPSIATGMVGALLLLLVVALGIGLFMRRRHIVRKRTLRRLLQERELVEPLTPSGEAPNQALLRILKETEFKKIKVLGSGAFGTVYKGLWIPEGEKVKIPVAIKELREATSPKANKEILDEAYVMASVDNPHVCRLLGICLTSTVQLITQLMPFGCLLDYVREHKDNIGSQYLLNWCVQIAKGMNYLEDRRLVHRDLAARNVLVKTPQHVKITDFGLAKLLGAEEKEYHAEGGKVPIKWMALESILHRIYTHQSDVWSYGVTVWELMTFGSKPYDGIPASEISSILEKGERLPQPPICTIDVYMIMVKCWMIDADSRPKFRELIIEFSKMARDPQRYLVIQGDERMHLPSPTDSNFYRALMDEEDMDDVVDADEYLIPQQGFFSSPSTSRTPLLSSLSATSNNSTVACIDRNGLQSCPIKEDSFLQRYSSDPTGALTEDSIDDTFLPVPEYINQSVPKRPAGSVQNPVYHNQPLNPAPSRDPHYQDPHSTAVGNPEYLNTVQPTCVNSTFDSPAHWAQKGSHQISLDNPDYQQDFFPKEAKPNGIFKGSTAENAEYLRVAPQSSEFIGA

[3] = target: T3, HER2 S310F (Homo sapiens, UniProt P04626, S310F); assay: Activity for inhibiting HER2 (Table B), HER2 S310F; conditions: read-out: HER2 S310F, potency code (IC50)
T3 construct: expressed in transfected cells; host or cells: BaF3 (murine pro-B)
T3 sequence (P04626 23-1255 S310F): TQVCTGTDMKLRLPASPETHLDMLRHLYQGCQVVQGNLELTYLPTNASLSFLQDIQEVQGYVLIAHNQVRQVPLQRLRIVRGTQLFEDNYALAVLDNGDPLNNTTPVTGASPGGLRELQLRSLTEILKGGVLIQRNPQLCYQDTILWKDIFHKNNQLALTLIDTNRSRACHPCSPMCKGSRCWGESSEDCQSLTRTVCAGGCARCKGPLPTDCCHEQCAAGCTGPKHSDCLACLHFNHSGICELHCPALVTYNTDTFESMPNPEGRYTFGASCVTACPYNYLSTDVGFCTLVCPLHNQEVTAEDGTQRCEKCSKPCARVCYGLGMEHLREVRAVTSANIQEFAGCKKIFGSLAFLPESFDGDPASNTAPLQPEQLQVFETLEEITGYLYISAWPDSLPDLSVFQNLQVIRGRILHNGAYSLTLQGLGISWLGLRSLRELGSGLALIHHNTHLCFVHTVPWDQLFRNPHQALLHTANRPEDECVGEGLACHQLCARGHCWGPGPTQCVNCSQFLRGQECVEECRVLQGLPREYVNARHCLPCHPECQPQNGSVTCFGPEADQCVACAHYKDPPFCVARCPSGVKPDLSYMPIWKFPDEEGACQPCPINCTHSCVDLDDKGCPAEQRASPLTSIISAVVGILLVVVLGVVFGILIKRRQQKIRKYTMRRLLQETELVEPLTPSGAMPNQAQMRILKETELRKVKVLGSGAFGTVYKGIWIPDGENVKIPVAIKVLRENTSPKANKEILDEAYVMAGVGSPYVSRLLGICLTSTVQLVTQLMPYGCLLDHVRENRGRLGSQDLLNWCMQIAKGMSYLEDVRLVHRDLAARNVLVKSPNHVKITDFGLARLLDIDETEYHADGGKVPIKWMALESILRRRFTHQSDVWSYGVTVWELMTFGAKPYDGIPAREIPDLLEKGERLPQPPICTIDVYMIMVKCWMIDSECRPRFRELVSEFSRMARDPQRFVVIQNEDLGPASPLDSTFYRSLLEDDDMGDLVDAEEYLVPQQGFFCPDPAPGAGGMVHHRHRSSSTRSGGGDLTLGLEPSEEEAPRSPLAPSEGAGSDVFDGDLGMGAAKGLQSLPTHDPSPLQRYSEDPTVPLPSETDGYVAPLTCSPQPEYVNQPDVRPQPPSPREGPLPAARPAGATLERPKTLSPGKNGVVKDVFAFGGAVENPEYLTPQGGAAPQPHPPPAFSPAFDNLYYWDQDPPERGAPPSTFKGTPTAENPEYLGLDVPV
Procedure: (§1) EC50 values were determined with the same application.

[4] = target: T4, HER2 YVMA (Homo sapiens, UniProt P04626, INS775YVMA); assay: Activity for inhibiting HER2 (Table B), HER2 YVMA; conditions: read-out: HER2 YVMA, potency code (IC50)
T4 construct: expressed in transfected cells; host or cells: BaF3 (murine pro-B)
T4 sequence (P04626 with tags, fused parts or gaps INS775YVMA): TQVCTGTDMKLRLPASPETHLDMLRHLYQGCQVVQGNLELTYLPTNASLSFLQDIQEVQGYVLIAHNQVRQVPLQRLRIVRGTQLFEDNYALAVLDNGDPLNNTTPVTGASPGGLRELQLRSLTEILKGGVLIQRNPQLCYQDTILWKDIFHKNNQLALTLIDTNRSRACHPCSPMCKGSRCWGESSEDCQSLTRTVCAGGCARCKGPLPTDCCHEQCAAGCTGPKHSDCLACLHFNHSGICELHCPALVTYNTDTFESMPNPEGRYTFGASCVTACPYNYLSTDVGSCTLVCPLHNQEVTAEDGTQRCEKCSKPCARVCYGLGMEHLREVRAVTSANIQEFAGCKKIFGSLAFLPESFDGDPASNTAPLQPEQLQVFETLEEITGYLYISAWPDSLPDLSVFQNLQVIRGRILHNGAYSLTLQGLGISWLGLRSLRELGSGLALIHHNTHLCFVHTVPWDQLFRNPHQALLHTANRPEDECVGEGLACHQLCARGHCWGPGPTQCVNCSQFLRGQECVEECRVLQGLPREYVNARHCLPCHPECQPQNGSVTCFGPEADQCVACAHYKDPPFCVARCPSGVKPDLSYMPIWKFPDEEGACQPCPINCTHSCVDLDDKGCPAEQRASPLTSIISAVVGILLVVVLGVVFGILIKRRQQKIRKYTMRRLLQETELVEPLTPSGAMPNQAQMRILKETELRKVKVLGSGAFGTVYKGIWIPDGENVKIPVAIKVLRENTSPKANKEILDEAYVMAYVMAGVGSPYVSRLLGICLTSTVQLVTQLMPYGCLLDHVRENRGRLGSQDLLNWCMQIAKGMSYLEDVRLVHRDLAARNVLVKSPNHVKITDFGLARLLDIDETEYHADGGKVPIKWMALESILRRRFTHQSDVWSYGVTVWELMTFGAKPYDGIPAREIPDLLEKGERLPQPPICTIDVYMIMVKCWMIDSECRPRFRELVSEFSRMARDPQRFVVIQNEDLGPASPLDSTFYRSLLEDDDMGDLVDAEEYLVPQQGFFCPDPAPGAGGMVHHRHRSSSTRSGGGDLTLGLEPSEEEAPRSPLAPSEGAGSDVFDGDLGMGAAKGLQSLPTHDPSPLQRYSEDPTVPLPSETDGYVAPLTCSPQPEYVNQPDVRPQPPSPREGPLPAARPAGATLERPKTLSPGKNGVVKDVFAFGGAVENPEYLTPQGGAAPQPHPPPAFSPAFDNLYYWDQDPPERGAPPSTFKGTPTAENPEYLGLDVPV
Procedure: as §1

[5] = target: T1, EGFR WT; assay: BaF3 cell proliferation assay, EGFR WT (Table A); conditions: potency code, 3 days, CellTiterGlo, read-out: EGFR WT (Activity for Inhibiting EGFR)
Outline: (§2)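 Steps: HEK 293T transfected with pMXs-IRES-Blasticidin kinase vector plus Gag-Pol and VSV-G; virus harvested at 24 and 48 hrs; BaF3 infected twice by centrifugation, Blasticidin-selected, then grown without IL-3. Proliferation EC50 measured.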

[6] = target: T2, EGFR V3; assay: BaF3 cell proliferation assay, EGFR V3 (Table A); conditions: potency code, 3 days, CellTiterGlo, read-out: EGFR V3 (Activity for Inhibiting EGFR)
Outline: as §2

[7] = target: T3, HER2 S310F; assay: BaF3 cell proliferation assay, HER2 S310F (Table B); conditions: potency code, 3 days, CellTiterGlo, read-out: HER2 S310F (Activity for Inhibiting HER2)
[8] = target: T4, HER2 YVMA; assay: BaF3 cell proliferation assay, HER2 YVMA (Table B); conditions: potency code, 3 days, CellTiterGlo, read-out: HER2 YVMA (Activity for Inhibiting HER2)

T1 sequence (P00533 25-1210 N540K): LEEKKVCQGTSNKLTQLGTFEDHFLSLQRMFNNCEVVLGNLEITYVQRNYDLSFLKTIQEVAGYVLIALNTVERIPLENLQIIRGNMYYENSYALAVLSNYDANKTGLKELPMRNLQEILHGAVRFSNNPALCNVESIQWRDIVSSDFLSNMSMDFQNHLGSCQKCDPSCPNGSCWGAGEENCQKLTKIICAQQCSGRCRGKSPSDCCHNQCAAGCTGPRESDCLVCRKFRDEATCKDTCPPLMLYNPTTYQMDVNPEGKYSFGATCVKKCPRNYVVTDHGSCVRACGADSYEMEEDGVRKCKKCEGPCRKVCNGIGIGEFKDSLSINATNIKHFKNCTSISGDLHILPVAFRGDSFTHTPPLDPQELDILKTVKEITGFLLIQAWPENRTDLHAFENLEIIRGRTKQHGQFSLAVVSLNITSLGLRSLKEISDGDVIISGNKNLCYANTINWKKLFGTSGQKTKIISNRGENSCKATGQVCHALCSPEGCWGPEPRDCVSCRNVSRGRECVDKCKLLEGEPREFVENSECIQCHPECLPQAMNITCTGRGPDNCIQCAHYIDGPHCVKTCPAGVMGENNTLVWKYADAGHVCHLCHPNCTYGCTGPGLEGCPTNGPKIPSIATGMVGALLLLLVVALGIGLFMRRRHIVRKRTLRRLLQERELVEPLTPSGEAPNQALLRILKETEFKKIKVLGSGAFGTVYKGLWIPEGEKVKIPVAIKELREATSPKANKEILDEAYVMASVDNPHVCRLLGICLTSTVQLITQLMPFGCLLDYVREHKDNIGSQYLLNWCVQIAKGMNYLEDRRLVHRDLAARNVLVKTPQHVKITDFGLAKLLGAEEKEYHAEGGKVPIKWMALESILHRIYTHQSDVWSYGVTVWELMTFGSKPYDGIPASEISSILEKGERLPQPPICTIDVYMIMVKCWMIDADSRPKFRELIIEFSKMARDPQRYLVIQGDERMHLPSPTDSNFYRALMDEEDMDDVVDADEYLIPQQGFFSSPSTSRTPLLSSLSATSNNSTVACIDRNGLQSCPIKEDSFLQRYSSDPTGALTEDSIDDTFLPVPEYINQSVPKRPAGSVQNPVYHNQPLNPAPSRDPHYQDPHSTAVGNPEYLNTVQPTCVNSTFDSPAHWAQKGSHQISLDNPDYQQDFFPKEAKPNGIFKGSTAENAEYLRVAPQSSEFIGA

SMILES	IC50 [1] [nM]	IC50 [2] [nM]	IC50 [3] [nM]	IC50 [4] [nM]	IC50 [5] [nM]	IC50 [6] [nM]	IC50 [7] [nM]	IC50 [8] [nM]
C=CC(=O)Nc1cc2c(Nc3ccc(OCc4cnccn4)c(Cl)c3)ncnc2cc1OCCCN1CCOCC1 [compound 169]	> 1000	30 to 50	10 to 20	30 to 50	> 1000	30 to 50	10 to 20	30 to 50
CC#CC(=O)Nc1cc2c(Nc3ccc(OCc4cnccn4)c(Cl)c3)ncnc2cc1OCCCN1CCOCC1 [compound 170, N-(4-((3-chloro-4-(pyrazin-2-ylmethoxy)phenyl)amino)-7-(3-morpholinopropoxy)quinazolin-6-yl)but-2-ynamide]	200 to 300	30 to 50	5 to 10	10 to 20	200 to 300	30 to 50	5 to 10	10 to 20
C=CC(=O)Nc1cc2c(Nc3ccc(OCc4cccnn4)c(Cl)c3)ncnc2cc1OCCN1CCOCC1 [compound 171]	> 1000	50 to 100	50 to 100	300 to 500	> 1000	50 to 100	50 to 100	300 to 500
C=CC(=O)Nc1cc2c(Nc3ccc(OCc4cccnn4)c(Cl)c3)ncnc2cc1OCCN1CCN(C)CC1 [compound 172]	500 to 1000	100 to 200	50 to 100	300 to 500	500 to 1000	100 to 200	50 to 100	300 to 500
C=CC(=O)Nc1cc2c(Nc3ccc(OCc4cccnn4)c(Cl)c3)ncnc2cc1OCCN1CC2CCC(C1)O2 [compound 173]	> 1000	50 to 100	30 to 50	200 to 300	> 1000	50 to 100	30 to 50	200 to 300
C=CC(=O)Nc1cc2c(Nc3ccc(OCc4cccnn4)c(Cl)c3)ncnc2cc1OCCN1CC(OC)C1 [compound 174]	> 1000	50 to 100	50 to 100	300 to 500	> 1000	50 to 100	50 to 100	300 to 500
C=CC(=O)Nc1cc2c(Nc3ccc(OCc4cnccn4)c(Cl)c3)ncnc2cc1OCCN1CC2CCC(C1)O2 [compound 175]	> 1000	30 to 50	20 to 30	100 to 200	> 1000	30 to 50	20 to 30	100 to 200
C=CC(=O)Nc1cc2c(Nc3ccc(OCc4cnccn4)c(Cl)c3)ncnc2cc1OCCN1CCOCC1 [compound 176]	> 1000	30 to 50	20 to 30	100 to 200	> 1000	30 to 50	20 to 30	100 to 200
C=CC(=O)Nc1cc2c(Nc3ccc(OCc4cccnn4)c(Cl)c3)ncnc2cc1OCCCN1CC(OC)C1 [compound 177]	500 to 1000	30 to 50	10 to 20	50 to 100	500 to 1000	30 to 50	10 to 20	50 to 100
C=CC(=O)Nc1cc2c(Nc3ccc(OCc4cnccn4)c(Cl)c3)ncnc2cc1OCCN1CC(OC)C1 [compound 178]	> 1000	30 to 50	30 to 50	100 to 200	> 1000	30 to 50	30 to 50	100 to 200
C=CC(=O)Nc1cc2c(Nc3ccc(OCc4cnccn4)c(Cl)c3)ncnc2cc1OCCCN1CC(OC)C1 [compound 179]	500 to 1000	30 to 50	10 to 20	30 to 50	500 to 1000	30 to 50	10 to 20	30 to 50
C=CC(=O)Nc1cc2c(Nc3ccc(OCc4cnccn4)c(Cl)c3)ncnc2cc1OCCN1CCN(C)CC1 [compound 180]	500 to 1000	30 to 50	20 to 30	100 to 200	500 to 1000	30 to 50	20 to 30	100 to 200
